Laboratory results: patent US20050158385A1, “Coating technique for deposition of drug substance on a substrate” (priority 2002, published 2005)

Test: in vitro release (dissolution) of tablets, USP II apparatus
Type: physicochemical
Settings: tablets from Trial 2 (three strands of PVDF as core), 250 ml 0.1 N HCl, 37° C., paddle 50 rpm
Method: The dimensions of the tablets from both trials were similar, as both trials yielded tablets approximately 3 mm thick. To determine the dose of 2,3:4,5-bis-O-(1-methylethylidene)-β-D-fructopyranose sulfamate in each tablet, the tablet was dissolved in 10 ml H2O/0.1 N HCl 9/1 v/v. The concentration of 2,3:4,5-bis-O-(1-methylethylidene)-β-D-fructopyranose sulfamate was analyzed by HPLC (Waters System with Millenium Software, 2690 Alliance, Waters, Milford, Mass.). A sample of 50 uL is injected into a Zorbax Eclipse (HP, Palo Alto, Calif.) column (XDB-C8, 4.6*150 mm, P/N: 993967.906). The mobile phase consists of H2O/methanol 68/32 w/w at a flow rate of 1.5 mL/min. The concentration was determined with a refractive index detector (Sensitivity 32). The peak retention time is 6.7 minutes and the run takes 14 minutes.
The in vitro release of the tablets made in this example was also determined. Four tablets from Trial 2 were placed in a USP II apparatus (SR8 plus, Hanson, Chatsworth, Calif.) containing 250 ml of 0.1 N HCl at 37° C. and a paddle rotating at 50 rpm. Dissolution was followed up to 1 hour, with samples taken after 5, 15, 30 and 60 minutes. An aliquot of 5 ml was filtered through a PTFE 0.2 micron filter. The sample was not replaced with fresh solvent. The concentration of 2,3:4,5-bis-O-(1-methylethylidene)-β-D-fructopyranose sulfamate was analyzed by HPLC as discussed above.

2,3:4,5-bis-O-(1-methylethylidene)-β-D-fructopyranose sulfamate released (after 5 minutes): approximately 4% | 2,3:4,5-bis-O-(1-methylethylidene)-β-D-fructopyranose sulfamate released (by 15 minutes): about 48% | 2,3:4,5-bis-O-(1-methylethylidene)-β-D-fructopyranose sulfamate released (in 30 minutes): complete release
SMILES: CC1(C)O[C@@H]2[C@@H](CO[C@@]3(COS(N)(=O)=O)OC(C)(C)O[C@@H]23)O1 [2,3:4,5-bis-O-(1-methylethylidene)-β-D-fructopyranose sulfamate]
